# Like-named read-outs stand apart in the source and are kept apart here.
# Legend:
# [1] = molecular target: T1, α1b (hamster receptor expressed in mouse fibroblasts) (Mesocricetus auratus, UniProt P18841); assay: Radioligand binding, [3H]-prazosin, α1b
# T1 construct: expressed in transfected cells; host or cells: mouse fibroblasts
# T1 sequence (P18841 1-515): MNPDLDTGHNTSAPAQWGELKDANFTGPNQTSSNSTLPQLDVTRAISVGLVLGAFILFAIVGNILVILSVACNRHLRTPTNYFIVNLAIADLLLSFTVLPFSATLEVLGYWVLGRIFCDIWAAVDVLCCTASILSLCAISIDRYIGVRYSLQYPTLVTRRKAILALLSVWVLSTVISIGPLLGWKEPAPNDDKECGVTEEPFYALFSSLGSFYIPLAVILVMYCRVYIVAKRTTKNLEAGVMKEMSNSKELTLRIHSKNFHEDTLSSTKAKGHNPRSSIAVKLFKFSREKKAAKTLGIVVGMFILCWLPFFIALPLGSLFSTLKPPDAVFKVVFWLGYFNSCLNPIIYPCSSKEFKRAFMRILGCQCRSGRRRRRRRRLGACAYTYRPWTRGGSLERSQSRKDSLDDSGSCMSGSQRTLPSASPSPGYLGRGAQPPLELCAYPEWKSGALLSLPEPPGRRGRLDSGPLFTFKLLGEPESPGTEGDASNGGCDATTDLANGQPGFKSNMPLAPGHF
# Method in brief: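 [3H]-prazosin radioligand displacement; α1A from rat submaxillary gland tissue, α1b hamster and α1d rat receptors each expressed in mouse fibroblasts.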
# [2] = molecular target: T2, α1A (rat submaxillary gland) (Rattus norvegicus, UniProt P43140); assay: Radioligand binding, [3H]-prazosin, α1A
# T2 construct: α1A (rat submaxillary gland); from tissue; host or cells: rat submaxillary gland
# T2 sequence (P43140 1-466): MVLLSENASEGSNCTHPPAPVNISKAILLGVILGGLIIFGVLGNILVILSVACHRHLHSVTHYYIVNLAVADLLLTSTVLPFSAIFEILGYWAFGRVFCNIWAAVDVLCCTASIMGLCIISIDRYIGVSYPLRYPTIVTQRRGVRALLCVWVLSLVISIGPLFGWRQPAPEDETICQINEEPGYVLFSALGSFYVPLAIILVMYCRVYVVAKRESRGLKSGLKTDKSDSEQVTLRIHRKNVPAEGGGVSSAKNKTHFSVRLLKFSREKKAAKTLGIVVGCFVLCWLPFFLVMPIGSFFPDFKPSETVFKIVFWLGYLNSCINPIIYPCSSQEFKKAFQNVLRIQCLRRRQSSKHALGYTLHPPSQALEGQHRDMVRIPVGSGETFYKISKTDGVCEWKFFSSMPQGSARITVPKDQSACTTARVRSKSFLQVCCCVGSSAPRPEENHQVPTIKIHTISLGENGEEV
# Procedure: (§1) For purposes of discussing a, adrenoceptor subtypes, the IUPHAR convention of using lower case letters to define molecular clones and upper case letters to indicate pharmacologically defined adrenoceptors has been followed. Compounds of formula I were evaluated in radioligand binding assays specific for α1A (rat submaxillary gland), α1b (hamster receptor expressed in mouse fibroblasts) and α1d (rat receptor expressed in mouse fibroblasts) using [^3H]-prazosin as the radioligand as described in Knepper, et al. J. Pharm.
# [3] = molecular target: T3, α1d (rat receptor expressed in mouse fibroblasts) (Rattus norvegicus, UniProt P23944); assay: Radioligand binding, [3H]-prazosin, α1d
# T3 construct: expressed in transfected cells; host or cells: mouse fibroblasts
# T3 sequence (P23944 1-561): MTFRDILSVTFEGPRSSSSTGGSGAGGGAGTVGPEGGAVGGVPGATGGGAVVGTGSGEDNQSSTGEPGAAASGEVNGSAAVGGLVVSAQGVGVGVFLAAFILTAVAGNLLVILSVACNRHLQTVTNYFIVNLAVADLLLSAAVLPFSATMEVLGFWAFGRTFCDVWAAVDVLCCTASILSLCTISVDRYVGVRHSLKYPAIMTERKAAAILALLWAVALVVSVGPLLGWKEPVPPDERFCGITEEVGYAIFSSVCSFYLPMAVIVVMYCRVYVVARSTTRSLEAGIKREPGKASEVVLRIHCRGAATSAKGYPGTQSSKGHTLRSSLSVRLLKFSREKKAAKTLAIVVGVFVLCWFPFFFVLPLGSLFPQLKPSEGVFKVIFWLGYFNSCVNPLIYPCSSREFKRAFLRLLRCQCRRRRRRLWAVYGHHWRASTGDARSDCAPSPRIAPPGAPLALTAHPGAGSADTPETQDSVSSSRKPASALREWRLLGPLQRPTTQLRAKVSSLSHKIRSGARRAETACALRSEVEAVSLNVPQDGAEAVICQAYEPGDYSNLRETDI
# Procedure: as §1
# α1A (rabbit urethra) = molecular target: T4, α1A (rabbit urethra) (Oryctolagus cuniculus, UniProt O02824); assay: Agonist tissue response, contraction of rabbit urethra; assay type: biochemical; settings: values without asterisk, read-out: Agonist Tissue Response (pD2) α1A (rab ureth) (converted)
# T4 construct: tested for α1A functional activity using rabbit urethra; from tissue; host or cells: rabbit urethra (female New Zealand white rabbits)
# T4 sequence (O02824 1-466): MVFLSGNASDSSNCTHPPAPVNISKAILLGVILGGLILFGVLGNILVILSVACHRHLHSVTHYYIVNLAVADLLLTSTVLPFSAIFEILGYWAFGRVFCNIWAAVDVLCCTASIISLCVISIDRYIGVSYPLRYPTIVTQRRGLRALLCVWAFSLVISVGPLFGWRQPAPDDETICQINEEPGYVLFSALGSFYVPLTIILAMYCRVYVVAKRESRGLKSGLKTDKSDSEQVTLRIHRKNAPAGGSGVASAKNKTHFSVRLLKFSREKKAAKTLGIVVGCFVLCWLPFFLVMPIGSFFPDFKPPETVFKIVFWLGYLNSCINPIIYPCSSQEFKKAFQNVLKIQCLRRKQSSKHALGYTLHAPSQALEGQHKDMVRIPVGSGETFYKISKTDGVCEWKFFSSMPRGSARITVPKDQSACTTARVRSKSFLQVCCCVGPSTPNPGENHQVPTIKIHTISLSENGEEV
# Procedure: Most of the compounds were tested for α1A functional activity using rabbit urethra as follows. Female New Zealand white rabbits (2.0-3.5 Kg) were sedated with CO2 and decapitated. […] Subsequent experimental conditions were as described above for the other tissues. Agonist concentration response curves were cumulative except for the vas deferens assay in which the transient response made such measurements impractical.
# anesthetized dogs [4] = assay: Mean arterial pressure (MAP) in anesthetized dogs; assay type: in vivo, dog; settings: iv dose causing a maximum increase in MAP of 20 mm Hg, anesthetized female Beagle dogs
# Excerpt: (§2) Female Beagle dogs (Marshall Farms, North Rose, N.Y.) greater that 2 years of age and weighing between 12 and 15 kg were used in these studies. At least 2 weeks prior to any agonist dosing, dogs were instrumented for the chronic measurement of arterial blood pressure by implanting a telemetry transducer/transmitter (TA11PA-C40, Data Sciences International, St. Paul, Minn.) into a carotid artery.
# (§3) On the test day, dogs fasted since the previous afternoon were pre-anesthetized with thiopental sodium 15 mg/kg i.v. (Pentothal™, Abbott) and intubated. Anesthesia was maintained by allowing the dog to spontaneously breathe a mixture of isoflurane (2.5 to 3 volume %) and oxygen delivered by a Narkomed Standard anesthesia system (North American Drager, Telford, Pa.). An Abbocath-T™ i.v. catheter (18-G, Abbott) was inserted into the cephalic vein for the administration of agonists. A telemetry receiver (RA1310, DataSciences) was placed under the head of each dog and was interfaced to a computerized data acquisition system (Modular Instruments Inc.(MI2), Malvern, Pa.) which allowed for the continuous calibrated recording of arterial blood pressure which was electronically filtered to determine its mean value (MAP).
# (§4) From the resulting dose response curve, an ED5 value, for the dose causing a maximum increase in IUP of 5 mm Hg, could be estimated. An ED20 value for the dose causing a maximum increase in MAP of 20 mm Hg could also be estimated. A selectivity ratio of MAP ED20 vs. IUP ED, was calculated.
# anesthetized dogs [5] = assay: Intraurethral pressure (IUP) in anesthetized dogs; assay type: in vivo, dog; settings: for ED (5 mm Hg): Canis lupus familiaris, iv dose causing a maximum increase in IUP of 5 mm Hg, anesthetized female Beagle dogs, read-out: Mean IUP ED5; for Mean Selectivity Ratio MAP ED20/IUP ED5: anesthetized dogs, iv
# Excerpt: as §2, §3
# Dogs with chronic telemetry implants anesthetized as described above were placed in dorsal recumbency and a balloon catheter was inserted into the urethral orifice and advanced approximately 15 cm until the tip was well inside the bladder. The balloon was then inflated with 1 ml of room air and the catheter slowly withdrawn until resistance (corresponding to the bladder neck) was evident. The balloon was then deflated and the catheter withdrawn additional 2 cm. The balloon was then reinflated and its catheter port connected to a Gould Statham P23Dd pressure transducer interfaced to a computerized data acquisition system (Modular Instruments, Inc., Malvern, Pa.) for the measurement of the intraurethral pressure. Increasing iv doses of test agonists were administered and the maximum effect of each dose on IUP was recorded. The effect of each dose was allowed to return to baseline before the next dose was given.
# as §4
# [6] = hamster receptor expressed in mouse fibroblasts, [3H]-prazosin, read-out: Radioligand Binding Ki α1b (Hamster)
# [7] = rat receptor expressed in mouse fibroblasts, [3H]-prazosin, read-out: Radioligand Binding Ki α1d (Rat)
SMILES,"Ki [1, 6]",Ki [2],melting point,"Ki [3, 7]",EC50 (α1A (rabbit urethra)),Mean MAP ED20 (anesthetized dogs [4]),ED (5 mm Hg) (anesthetized dogs [5]),Ki [1],Mean Selectivity Ratio MAP ED20/IUP ED5 (anesthetized dogs [5]),Ki [3]
"CS(=O)(=O)Nc1cc(F)cc2c1OCCC2c1c[nH]cn1.O=C(O)/C=C\C(=O)O (stereo not shown) [Example 90, N-[6-fluoro-4-(1H-imidazol-4-yl)-3,4-dihydro-2H-chromen-8-yl]methanesulfonamide Maleate]",10 µM,0.237 µM,187 to 190 °C,10 µM,0.49 µM,,,,,
"CCN(C(=O)Nc1cccc2c1CCCC2c1c[nH]cn1)C1CCCCC1 (stereo not shown) [Example 113, N-cyclohexyl-N-ethyl-N′-[5-(1H-imidazol-4-yl)-5,6,7,8-tetrahydro-1-naphthalenyl]urea]",10 µM,0.536 µM,,2.11 µM,3.98 µM,733.7 nmol/kg,,,,
"C=C(c1cccc(NS(C)(=O)=O)c1)c1c[nH]cn1 [Example 92, N-{3-[1-(1H-imidazol-4-yl)vinyl]phenyl}methanesulfonamide]",10 µM,0.689 µM,,1.98 µM,3.24 µM,652.06 nmol/kg,0.397 µmol/kg,,,
"O=C(Nc1cccc2c1CCCC2c1c[nH]cn1)N1CCOCC1 (stereo not shown) [Example 117, N-[5-(1H-imidazol-4-yl)-5,6,7,8-tetrahydro-1-naphthalenyl]-4-morpholinecarboxamide]",,1.1 µM,,,5.37 µM,645 nmol/kg,0.873 µmol/kg,10 µM,0.75,10 µM
"O=C(Nc1cccc2c1CCCC2c1c[nH]cn1)OCC(Cl)(Cl)Cl (stereo not shown) [Example 121, 2,2,2-trichloroethyl 5-(1H-imidazol-4-yl)-5,6,7,8-tetrahydro-1-naphthalenylcarbamate]",,0.229 µM,,,3.72 µM,,,1.85 µM,,0.963 µM
"COCCN(CCOC)C(=O)Nc1cccc2c1CCCC2c1c[nH]cn1 (stereo not shown) [Example 116, N′-[5-(1H-imidazol-4-yl)-5,6,7,8-tetrahydro-1-naphthalenyl]-N,N-bis(2-methoxyethyl)urea]",10 µM,2.98 µM,,10 µM,9.33 µM,,,,,
"O=S(=O)(C=Cc1ccccc1)Nc1cccc2c1CCCC2c1cnc[nH]1 (stereo not shown) [Example 70, N-[5-(1H-imidazol-5-yl)-5,6,7,8-tetrahydro-1-naphthalenyl]-2-phenyl-1-ethenesulfonamide]",0.387 µM,0.43 µM,,0.353 µM,81.3 µM,,,,,
"O=C(Nc1cccc2c1CCCC2c1c[nH]cn1)N1CCCCC1 (stereo not shown) [Example 114, N-[5-(1H-imidazol-4-yl)-5,6,7,8-tetrahydro-1-naphthalenyl]-1-piperidinecarboxamide]",10 µM,1.05 µM,,5.62 µM,9.12 µM,1074.07 nmol/kg,1.68 µmol/kg,,0.97,
"CC(C)[C@H]1CC[C@H](C)C[C@@H]1OC(=O)Nc1cccc2c1CCCC2c1c[nH]cn1 (stereo partly drawn) [Example 123, (1S,2R,5S)-2-isopropyl-5-methylcyclohexyl 5-(1H-imidazol-4-yl)-5,6,7,8-tetrahydro-1-naphthalenylcarbamate]",1.36 µM,1.28 µM,,0.692 µM,6.17 µM,,,,,
"CC1CC(C)CN(C(=O)Nc2cccc3c2CCCC3c2c[nH]cn2)C1 (stereo not shown) [Example 115, N-[5-(1H-imidazol-4-yl)-5,6,7,8-tetrahydro-1-naphthalenyl]-3,5-dimethyl-1-piperidinecarboxamide]",10 µM,1.16 µM,,10 µM,5.5 µM,500 nmol/kg,0.5 µmol/kg,,1.05,
"CCCN(CCC)C(=O)Nc1cccc2c1CCCC2c1c[nH]cn1 (stereo not shown) [Example 112, N′-[5-(1H-imidazol-4-yl)-5,6,7,8-tetrahydro-1-naphthalenyl]-N,N-dipropylurea]",10 µM,1.24 µM,,10 µM,7.94 µM,,,,,
"O=S(=O)(Cc1ccccc1)Nc1cccc2c1CCCC2c1cnc[nH]1 (stereo not shown) [Example 67, N-[5-(1H-imidazol-5-yl)-5,6,7,8-tetrahydro-1-naphthalenyl](phenyl)methanesulfonamide]",2.39 µM,0.901 µM,,3.74 µM,107 µM,,,,,

# From patent US20030073850A1, “4-Imidazole derivatives of benzyl and restricted benzyl sulfonamides, sulfamides, ureas, carbamates, and amides and their use” (priority 1998, published 2003)
